# Reference: article PMC10538209, “Ginsentide-like Coffeetides Isolated from Coffee Waste Are Cell-Penetrating and Metal-Binding Microproteins” (Molecules, 2023)
# Positions of bridges follow the written chain, without caps; N, C: chain ends. Non-standard residues stand in square brackets, D forms with d. Residues, ends and D or L forms follow the SMILES beside them. pGlu = O=C1CC[C@@H](C(=O)O)N1
# What was measured:
# Acidic stability assay = format: physicochemical; settings: native cC1a 200 µM; acidic conditions (pH 2), 1 M HCl in legend, 2 M HCl in method, 2 h; quenched with 1 M NaOH; RP-UHPLC; triplicate
# Protocol: (§1) Figure 6 Stability assays of coffeetide cC1a. An amount of 200 µM coffeetide cC1a was subjected to (A) heat at 100 °C for 2 h, (B) acidic conditions in 1 M HCl (pH 2.0) for 2 h, (C) pepsin in 100 mM sodium citrate buffer (pH 2.5) for 6 h, (D) aminopeptidase I in 20 mM tricine for 6 h, and (E) human serum for 36 h. MALDI-TOF MS was used to characterize coffeetide cC1a and reversed-phase ultra-high pressure liquid chromatography was used to quantify cC1a in the treated samples to calculate the percentage of cC1a remaining intact.
# (§2) Thermal and acidic stability: A solution of purified 200 µM coffeetide cC1a was subjected to rigorous conditions, including incubation at 100 °C in a water bath and exposure to 2 M hydrochloric acid for 2 h. The reactions were promptly quenched, either by placing the samples in an ice bath for 10 min or by adding 1 M sodium hydroxide at various time intervals (0, 30, 60, 90, 120 min). Subsequently, the treated samples were injected into RP-UHPLC to evaluate the presence of coffeetide cC1a and quantify any degradation. Each experiment was conducted in triplicate, and MALDI-TOF MS was employed to analyze the collected peaks.
# [1] = Isothermal titration calorimetry (ITC), Ca2+; format: binding; settings: 200 µM metal ion titrated into cC1a, 10 mM Tris, 100 mM NaCl, pH 6.3
# Protocol: (§3) Isothermal Titration Calorimetry (ITC) experiments were conducted at 298 K using the MicroCal PEAQ ITC system from Malvern Instruments Ltd., Malvern, UK. MgCl2, KCl, CaCl2, and FeCl3 were dissolved in a 10 mM Tris buffer containing 100 mM NaCl at a pH of 6.3. Similarly, coffeetide cC1a was prepared in the same buffer. In the initial set of experiments, 200 µM of these ions were incrementally titrated into cC1a, involving twenty 2.5 µL injections, while simultaneously measuring the heat changes. Additional experiments were conducted with higher concentrations of KCl, MgCl2, and FeCl3 interacting with cC1a. Specifically, 400 µM of KCl, MgCl2, and FeCl3 were titrated into a solution containing 40 µM of cC1a, utilizing twenty 2.5 µL injections, and monitoring the associated heat changes. Control experiments were conducted by titrating ions into a 10 mM Tris (pH 6.3) buffer containing 100 mM NaCl to account for heat changes resulting from dilution. The obtained titration curves were analyzed using MicroCal PEAQ-ITC analytics software (version 1.0.0.1259, Malvern Instruments Ltd.).
# [2] = Isothermal titration calorimetry (ITC), K+; format: binding; settings: 200 µM (also 400 µM) metal ion titrated into cC1a, 10 mM Tris, 100 mM NaCl, pH 6.3
# Protocol: as §3
# aminopeptidase I = system: T1, aminopeptidase I; assay: Proteolytic stability, aminopeptidase I; format: in vitro ADME; settings: native cC1a 200 µM, 20 U/mL aminopeptidase I in 20 mM tricine, 0.05% BSA, pH 8.0, 37 °C, RP-UHPLC, read-out: coffeetide remained intact with aminopeptidase
# T1 construct: purchased Sigma Aldrich or Fisher Scientific (general statement only)
# Protocol: as §1
# (§4) Proteolytic stability: In this test, purified 200 µM coffeetide cC1a was exposed to 37 °C for 6 h in the presence of 4 mg/mL of pepsin in a 100 mM sodium citrate buffer (pH 2.5) or 20 U/mL of aminopeptidase I in 20 mM tricine and 0.05% bovine serum albumin (pH 8.0). The peptide-to-enzyme ratio (w/w) was maintained at either 20:1 or 50:1. At specific time intervals (0, 2, 4, and 6 h), 20 µL of each sample was injected into RP-UHPLC to monitor degradation.
# HUVEC-CS cells = assay: MTT toxicity assay, HUVEC-CS; format: cell-based, human; settings: 24 h treatment, concentrations up to 100 µM, MTT absorbance 550 nm, mean ± S.E.M. n = 3
# Protocol: (§5) HeLa cells (human cervical cancer cells) and HUVEC-CS (human umbilical vein endothelial cells) were cultured in DMEM (Dulbecco’s Modified Eagle Medium) from Thermo Scientific, supplemented with 10% fetal bovine serum, 100 U/mL of penicillin, and streptomycin. Cell cultures were maintained in a 5% CO2 incubator at 37 °C.
# (§6) To evaluate cell viability, a 3-(4,5-dimethylthiazolyl-2)-2,5-diphenyltetrazolium bromide (MTT) dye reduction assay was employed. In brief, HeLa and HUVEC-CS cells were subjected to treatment with either coffeetide cC1a or 0.1% Triton X-100 (utilized as a positive control) for a duration of 24 h. Following the incubation period, MTT was introduced to the cells to achieve a final concentration of 0.5 mg/mL and incubated for 3 h at 37 °C. The resulting insoluble formazan crystals were subsequently dissolved by the addition of dimethyl sulfoxide, and absorbance was measured at 550 nm using a microplate reader (Tecan Infinite® 200 Pro, Switzerland).
# [3] = Isothermal titration calorimetry (ITC), Mg2+; settings: 10 mM Tris, 100 mM NaCl, pH 6.3, 20 °C in text (298 K in method), synthetic cC1a, read-out: binding affinity (KD) to Mg^2+
# Protocol: as §3
# [4] = Isothermal titration calorimetry (ITC), Fe3+; settings: 10 mM Tris, 100 mM NaCl, pH 6.3, 20 °C in text (298 K in method), synthetic cC1a, read-out: binding affinity (KD) to Fe^3+
# Protocol: as §3
# HeLa cells = assay: MTT toxicity assay, HeLa; format: cell-based, human; settings: 24 h treatment, concentrations up to 100 µM, MTT absorbance 550 nm, mean ± S.E.M. n = 3
# Protocol: as §5, §6
# [5] = Human serum-mediated stability; format: in vitro ADME; settings: 25% human serum (AB-type) in DMEM, native cC1a, 25% human male serum (AB-type) in phenol red-free DMEM, 37 °C, ethanol precipitation, RP-UHPLC, read-out: coffeetide remained after treatment with human serum
# Protocol: as §1
# Human serum-mediated stability: To assess stability in a biologically relevant context, purified 200 µg coffeetide cC1a was incubated with 25% human male serum (AB-type) in phenol red-free Dulbecco’s Modified Eagle Medium (DMEM) at 37 °C for 48 h. At defined time points (0 h, 12 h, 24 h, and 48 h), 50 µL of the samples were collected and treated with 100 µL of 95% ethanol to precipitate serum proteins. After incubation at 4 °C for 15 min and centrifugation at 13,000 rpm for 10 min, the extent of degradation was evaluated through RP-UHPLC chromatograms.
# Thermal stability assay = format: physicochemical; settings: native cC1a 200 µM; high heat (95 °C in text; 100 °C water bath in legend and method), 2 h; quenched in ice bath; RP-UHPLC quantification; triplicate
# Protocol: as §1, §2
# pepsin = system: T2, pepsin; assay: Proteolytic stability, pepsin; format: in vitro ADME; settings: native cC1a 200 µM, 4 mg/mL pepsin in 100 mM sodium citrate buffer pH 2.5, 37 °C, RP-UHPLC, read-out: coffeetide remained intact with pepsin
# T2 construct: purchased Sigma Aldrich or Fisher Scientific (general statement only)
# Protocol: as §1, §4
compound,measurement,setting,value
"CC[C@H](C)[C@@H]1NC(=O)[C@@H]2CSSC[C@@H]3NC(=O)[C@@H]4CCCN4C(=O)[C@H](CCC(=O)O)NC(=O)CNC(=O)[C@H](CC(C)C)NC(=O)[C@@H]4CCCN4C(=O)[C@H](CO)NC(=O)[C@@H](NC(=O)[C@H](CCC(=O)O)NC(=O)CNC(=O)[C@H](CCC(=O)O)NC(=O)[C@@H]4CCC(=O)N4)CSSC[C@@H]4NC(=O)[C@H](CSSC[C@H](NC(=O)[C@H](CCCNC(=N)N)NC(=O)[C@H](CC(=O)O)NC(=O)[C@H]([C@@H](C)O)NC(=O)[C@H](CC(C)C)NC(=O)[C@H](CCC(N)=O)NC(=O)[C@H](Cc5c[nH]c6ccccc56)NC1=O)C(=O)N[C@@H](C(C)C)C(=O)NCC(=O)N[C@@H](CC(N)=O)C(=O)N[C@H](C(=O)O)CSSC[C@H](NC(=O)CNC(=O)[C@@H]1CCCN1C4=O)C(=O)N[C@@H]([C@@H](C)CC)C(=O)N2)NC(=O)CNC(=O)[C@H](Cc1c[nH]c2ccccc12)NC(=O)[C@@H]1CCCN1C(=O)[C@H](CC(N)=O)NC(=O)CNC(=O)[C@H](C)NC3=O [cC1a] ([pGlu]EGECSPLGEPCAGNPWGCCPGCICIWQLTDRCVGNC-OH; disulfide 5-20, 12-25, 19-33, 23-37)",coffeetide remained intact under acidic conditions,Acidic stability assay,> 88%
same,binding affinity to Ca^2+,[1],does not display reproducible binding affinity
same,binding affinity to K^+,[2],does not display reproducible binding affinity
same,"remaining at 6 h, 200 µM",aminopeptidase I,> 90%
same,cytotoxicity (MTT cell viability),HUVEC-CS cells,not cytotoxic
same,Kd,[3],4190 ± 4790 nM
same,Kd,[4],1670 ± 1800 nM
same,cytotoxicity (MTT cell viability),HeLa cells,not cytotoxic
same,"remaining at 36 h, 200 µM",[5],> 85%
same,coffeetide remained intact under high heat,Thermal stability assay,> 88%
same,"remaining at 6 h, 200 µM",pepsin,> 90%
